Laboratory results from the NIST ThermoML archive (doi:10.1016/j.jct.2012.02.023).

Test: xn = mol fraction of the nth substance listed
Settings: 101 kPa, Liquid; for speed of sound: Sing-around technique in a fixed-path interferometer; for mass density: Vibrating tube method

CCCC[n+]1ccc(C)cc1.F[B-](F)(F)F [1-butyl-4-methylpyridinium tetrafluoroborate] + CCO
Settings | mass density, 293.15 K [kg/m3] | mass density, 303.15 K [kg/m3] | mass density, 313.15 K [kg/m3] | mass density, 323.15 K [kg/m3] | speed of sound, 293.15 K [m/s] | speed of sound, 303.15 K [m/s] | speed of sound, 313.15 K [m/s] | speed of sound, 323.15 K [m/s]
x1 = 0.0507 | 854.988 | 846.802 | 838.56 | 830.183 | 1206.5 | 1176.7 | 1147.1 | 1117.3
x1 = 0.1 | 904.491 | 896.578 | 888.401 | 880.152 | 1246.2 | 1219 | 1189.9 | 1162.1
x1 = 0.1971 | 976.866 | 969.284 | 961.403 | 953.269 | 1321.9 | 1296.3 | 1268.9 | 1240.4
x1 = 0.2912 | 1026.69 | 1019.31 | 1011.46 | 1003.86 | 1384.8 | 1359.2 | 1333.8 | 1308.5
x1 = 0.3903 | 1066.1 | 1058.84 | 1051.3 | 1043.95 | 1440.8 | 1415 | 1389.7 | 1364.8
x1 = 0.4876 | 1096.19 | 1088.98 | 1081.75 | 1074.66 | 1483.8 | 1457.9 | 1432.5 | 1408
x1 = 0.5825 | 1119.75 | 1112.72 | 1105.58 | 1098.5 | 1522.5 | 1496.8 | 1471.7 | 1446.7
x1 = 0.6879 | 1141.24 | 1134.29 | – | 1120.3 | 1548.5 | 1525.3 | 1499.5 | 1475.8
x1 = 0.7938 | 1159.02 | 1152.18 | 1145.03 | 1138.28 | 1576.1 | 1556 | – | 1502.9
x1 = 0.8927 | 1173 | 1166.2 | 1159.13 | 1152.42 | 1594.2 | 1569.1 | – | 1522.3
x1 = 0.9284 | 1177.54 | 1170.73 | 1163.69 | 1157 | 1601.9 | 1579.3 | – | 1530.5

CCCC[n+]1ccc(C)cc1.F[B-](F)(F)F [1-butyl-4-methylpyridinium tetrafluoroborate] + CO
Settings | mass density, 293.15 K [kg/m3] | mass density, 303.15 K [kg/m3] | mass density, 313.15 K [kg/m3] | mass density, 323.15 K [kg/m3] | speed of sound, 293.15 K [m/s] | speed of sound, 303.15 K [m/s] | speed of sound, 313.15 K [m/s] | speed of sound, 323.15 K [m/s]
x1 = 0.0507 | 881.091 | 872.29 | 863.158 | 854.017 | 1208.6 | 1178.1 | 1148.1 | 1119.5
x1 = 0.0989 | 939.26 | 930.783 | 922.085 | – | 1271.8 | 1242.3 | 1214.2 | –
x1 = 0.1922 | 1013.58 | 1005.46 | 997.343 | 989.026 | 1364.3 | 1337.8 | 1311.3 | 1289
x1 = 0.2934 | 1064.12 | 1056.34 | 1048.54 | 1040.72 | 1433.1 | 1409.5 | 1381.4 | 1361.5
x1 = 0.3877 | 1096.33 | 1088.9 | 1081.21 | 1073.75 | 1479.9 | 1455.9 | 1431.2 | 1407.8
x1 = 0.4839 | 1120.56 | 1113.33 | 1105.85 | 1098.72 | 1517 | 1490.9 | 1464.4 | 1439.8
x1 = 0.5909 | 1140.92 | 1133.83 | 1126.57 | 1119.63 | 1546.9 | 1521.3 | 1494.6 | 1471.5
x1 = 0.6925 | 1155.91 | 1148.93 | 1141.79 | 1134.99 | 1568.3 | 1543.5 | 1518.2 | 1494.6
x1 = 0.8001 | 1168.52 | 1161.62 | 1154.59 | 1147.87 | 1587.9 | 1563.2 | 1538.4 | 1516
x1 = 0.9042 | 1178.4 | 1171.56 | 1164.56 | 1157.92 | 1602.5 | 1577.6 | 1553.6 | 1531.3
x1 = 0.9535 | 1182.44 | 1175.62 | 1168.62 | 1162.01 | 1607.8 | 1583.1 | 1558.9 | 1536.3
